How the values were obtained:
A549 = experiment: Cytotoxicity against human A549 cells assessed as growth inhibition at 10 uM after 48 hrs by SRB assay; type: functional; details: A549, 48 h, read-out: GI
MDA-MB-468 [1] = experiment: Cytotoxicity against human MDA-MB-468 cells assessed as growth level at 10 uM after 48 hrs by SRB assay; type: functional
[2] = Cytotoxicity against human LOXIMVI cells assessed as growth inhibition at 10 uM after 48 hrs by SRB assay; type: functional; details: LOX IMVI, read-out: GI
[3] = Cytotoxicity against human DU145 cells assessed as growth inhibition at 10 uM after 48 hrs by SRB assay; type: functional; details: DU-145, 48 h, read-out: GI
[4] = Cytotoxicity against human SW620 cells assessed as growth inhibition at 10 uM after 48 hrs by SRB assay; type: functional; details: SW-620, 48 h, read-out: GI
[5] = Cytotoxicity against human UO31 cells assessed as growth inhibition at 10 uM after 48 hrs by SRB assay; type: functional; details: UO-31, 48 h, read-out: GI
[6] = Cytotoxicity against human Hs578T cells assessed as growth inhibition at 10 uM after 48 hrs by SRB assay; type: functional; details: Hs-578T, read-out: GI
[7] = Cytotoxicity against human OVCAR8 cells assessed as growth inhibition at 10 uM after 48 hrs by SRB assay; type: functional; details: OVCAR-8, 48 h, read-out: GI
[8] = Cytotoxicity against human IGROV1 cells assessed as growth level at 10 uM after 48 hrs by SRB assay; type: functional, IGROV-1
[9] = Cytotoxicity against human UACC257 cells assessed as growth inhibition at 10 uM after 48 hrs by SRB assay; type: functional; details: UACC-257, 48 h, read-out: GI
SK-MEL-5 = experiment: Cytotoxicity against human SK-MEL-5 cells assessed as growth level at 10 uM after 48 hrs by SRB assay; type: functional
SN12C [10] = experiment: Cytotoxicity against human SN12C cells assessed as growth inhibition at 10 uM after 48 hrs by SRB assay; type: functional; details: read-out: GI
MDA-MB-231 = experiment: Cytotoxicity against human MDA-MB-231 cells assessed as growth inhibition at 10 uM after 48 hrs by SRB assay; type: functional; details: MDA-MB-231, 48 h, read-out: GI
NCI-H460 = experiment: Cytotoxicity against human NCI-H460 cells assessed as growth level at 10 uM after 48 hrs by SRB assay; type: functional
SN12C [11] = experiment: Cytotoxicity against human SN12C cells assessed as growth level at 10 uM after 48 hrs by SRB assay; type: functional
[12] = Cytotoxicity against human SW620 cells assessed as growth level at 10 uM after 48 hrs by SRB assay; type: functional, SW-620
[13] = Cytotoxicity against human SF268 cells assessed as growth level at 10 uM after 48 hrs by SRB assay; type: functional, SF-268
NCI-H322M = experiment: Cytotoxicity against human NCI-H322M cells assessed as growth level at 10 uM after 48 hrs by SRB assay; type: functional
NCI-H23 [14] = experiment: Cytotoxicity against human NCI-H23 cells assessed as growth level at 10 uM after 48 hrs by SRB assay; type: functional
[15] = Cytotoxicity against human MOLT4 cells assessed as growth level at 10 uM after 48 hrs by SRB assay; type: functional, MOLT-4
[16] = Cytotoxicity against human HL-60(TB) cells assessed as growth level at 10 uM after 48 hrs by SRB assay; type: functional
KM12 = experiment: Cytotoxicity against human KM12 cells assessed as growth inhibition at 10 uM after 48 hrs by SRB assay; type: functional; details: KM12, 48 h, read-out: GI
[17] = Cytotoxicity against human Hs578T cells assessed as growth level at 10 uM after 48 hrs by SRB assay; type: functional, Hs-578T
[18] = Cytotoxicity against human UACC257 cells assessed as growth level at 10 uM after 48 hrs by SRB assay; type: functional, UACC-257
SR [19] = experiment: Cytotoxicity against human SR cells assessed as growth level at 10 uM after 48 hrs by SRB assay; type: functional
SR [20] = experiment: Cytotoxicity against human SR cells assessed as growth inhibition at 10 uM after 48 hrs by SRB assay; type: functional; details: read-out: GI
[21] = Cytotoxicity against human SF295 cells assessed as growth inhibition at 10 uM after 48 hrs by SRB assay; type: functional; details: SF-295, 48 h, read-out: GI
NCI-H23 [22] = experiment: Cytotoxicity against human NCI-H23 cells assessed as growth inhibition at 10 uM after 48 hrs by SRB assay; type: functional; details: NCI-H23, 48 h, read-out: GI
U-251 = experiment: Cytotoxicity against human U251 cells assessed as growth level at 10 uM after 48 hrs by SRB assay; type: functional
NCI-H522 = experiment: Cytotoxicity against human NCI-H522 cells assessed as growth level at 10 uM after 48 hrs by SRB assay; type: functional
[23] = Cytotoxicity against human HOP62 cells assessed as growth level at 10 uM after 48 hrs by SRB assay; type: functional, HOP-62
[24] = Cytotoxicity against human UACC62 cells assessed as growth inhibition at 10 uM after 48 hrs by SRB assay; type: functional; details: UACC-62, 48 h, read-out: GI
[25] = Cytotoxicity against human HOP92 cells assessed as growth inhibition at 10 uM after 48 hrs by SRB assay; type: functional; details: HOP-92, 48 h, read-out: GI
786-0 = experiment: Cytotoxicity against human 786-0 cells assessed as growth inhibition at 10 uM after 48 hrs by SRB assay; type: functional; details: 786-0, 48 h, read-out: GI
[26] = Cytotoxicity against human IGROV1 cells assessed as growth inhibition at 10 uM after 48 hrs by SRB assay; type: functional; details: IGROV-1, 48 h, read-out: GI
MDA-MB-435 = experiment: Cytotoxicity against human MDA-MB-435 cells assessed as growth level at 10 uM after 48 hrs by SRB assay; type: functional
MCF7 = experiment: Cytotoxicity against human MCF7 cells assessed as growth level at 10 uM after 48 hrs by SRB assay; type: functional
[27] = Cytotoxicity against human DU145 cells assessed as growth level at 10 uM after 48 hrs by SRB assay; type: functional, DU-145
[28] = Cytotoxicity against human SKOV3 cells assessed as growth inhibition at 10 uM after 48 hrs by SRB assay; type: functional; details: SK-OV-3, 48 h, read-out: GI
[29] = Cytotoxicity against human HCT116 cells assessed as growth level at 10 uM after 48 hrs by SRB assay; type: functional, HCT-116
NCI-H226 = experiment: Cytotoxicity against human NCI-H226 cells assessed as growth inhibition at 10 uM after 48 hrs by SRB assay; type: functional; details: NCI-H226, 48 h, read-out: GI
MDA-MB-468 [30] = experiment: Cytotoxicity against human MDA-MB-468 cells assessed as growth inhibition at 10 uM after 48 hrs by SRB assay; type: functional; details: MDA-MB-468, 48 h, read-out: GI
[31] = Cytotoxicity against human OVCAR4 cells assessed as growth level at 10 uM after 48 hrs by SRB assay; type: functional, OVCAR-4
[32] = Cytotoxicity against human NCI-ADR-RES cells assessed as growth inhibition at 10 uM after 48 hrs by SRB assay; type: functional; details: read-out: GI

C=C1CC[C@@H]2[C@](C)(COC(C)=O)[C@H](OC(C)=O)CC[C@@]2(C)[C@@H]1CC(NCCCCCCCC)C1=CCOC1=O (mixture of isomers)
inhibition of growth at 10 µM (A549): 32.8% | Activity (MDA-MB-468 [1]): 32.04% | inhibition of growth at 10 µM [2]: 46.1% | inhibition of growth at 10 µM [3]: 11.3% | inhibition of growth at 10 µM [4]: 27.6% | inhibition of growth at 10 µM [5]: 43.9% | inhibition of growth at 10 µM [6]: 16.9% | inhibition of growth at 10 µM [7]: 29% | Activity [8]: 70.18% | inhibition of growth at 10 µM [9]: 38.9% | Activity (SK-MEL-5): 50.57% | inhibition of growth at 10 µM (SN12C [10]): 26.9% | inhibition of growth at 10 µM (MDA-MB-231): 29.2% | Activity (NCI-H460): 52.67% | Activity (SN12C [11]): 73.09% | Activity [12]: 72.43% | Activity [13]: 67.83% | Activity (NCI-H322M): 98.01% | Activity (NCI-H23 [14]): 70.76% | Activity [15]: 36.47% | Activity [16]: 58.93% | inhibition of growth at 10 µM (KM12): 31.4% | Activity [17]: 83.08% | Activity [18]: 61.1% | Activity (SR [19]): 36.8% | inhibition of growth at 10 µM (SR [20]): 63% | inhibition of growth at 10 µM [21]: 19% | inhibition of growth at 10 µM (NCI-H23 [22]): 29.2% | Activity (U-251): 55.53% | Activity (NCI-H522): 64.41% | Activity [23]: 91.97% | inhibition of growth at 10 µM [24]: 52.3% | inhibition of growth at 10 µM [25]: 55.4% | inhibition of growth at 10 µM (786-0): 20.1% | inhibition of growth at 10 µM [26]: 29.8% | Activity (MDA-MB-435): 77.59% | Activity (MCF7): 68.8% | Activity [27]: 88.73% | inhibition of growth at 10 µM [28]: 22.9% | Activity [29]: 35.89% | inhibition of growth at 10 µM (NCI-H226): 34.2% | inhibition of growth at 10 µM (MDA-MB-468 [30]): 68% | Activity [31]: 52.34% | inhibition of growth at 10 µM [32]: 12.3%

C=C1CC[C@@H]2[C@](C)(COC(C)=O)[C@H](OC(C)=O)CC[C@@]2(C)[C@@H]1CC(NC1CCCC1)C1=CCOC1=O (stereo partly drawn)
inhibition of growth at 10 µM (A549): 26.4% | Activity (MDA-MB-468 [1]): 34.72% | inhibition of growth at 10 µM [2]: 31.5% | inhibition of growth at 10 µM [3]: 8.04% | inhibition of growth at 10 µM [4]: 32.5% | inhibition of growth at 10 µM [5]: 43.9% | inhibition of growth at 10 µM [6]: 25.1% | inhibition of growth at 10 µM [7]: 46.3% | Activity [8]: 88.25% | inhibition of growth at 10 µM [9]: 61.6% | Activity (SK-MEL-5): 34.29% | inhibition of growth at 10 µM (SN12C [10]): 21.5% | inhibition of growth at 10 µM (MDA-MB-231): 19.6% | Activity (NCI-H460): 74.77% | Activity (SN12C [11]): 78.46% | Activity [12]: 67.48% | Activity [13]: 76.66% | Activity (NCI-H322M): 101.16% | Activity (NCI-H23 [14]): 62.53% | Activity [15]: 42.41% | Activity [16]: 42.67% | inhibition of growth at 10 µM (KM12): 25.5% | Activity [17]: 74.91% | Activity [18]: 38.37% | Activity (SR [19]): 19.62% | inhibition of growth at 10 µM (SR [20]): 80.4% | inhibition of growth at 10 µM [21]: 9.61% | inhibition of growth at 10 µM (NCI-H23 [22]): 37.5% | Activity (U-251): 75.39% | Activity (NCI-H522): 45.56% | Activity [23]: 94.41% | inhibition of growth at 10 µM [24]: 34.4% | inhibition of growth at 10 µM [25]: 74.8% | inhibition of growth at 10 µM (786-0): 7.49% | inhibition of growth at 10 µM [26]: 11.8% | Activity (MDA-MB-435): 75.73% | Activity (MCF7): 72.42% | Activity [27]: 91.96% | inhibition of growth at 10 µM [28]: 12.1% | Activity [29]: 44.68% | inhibition of growth at 10 µM (NCI-H226): 15.5% | inhibition of growth at 10 µM (MDA-MB-468 [30]): 65.3% | Activity [31]: 58.35% | inhibition of growth at 10 µM [32]: 31.5%
